Patent US12492173B2, “Herbicidal substituted N-tetrazolyl aryl carboxamides” (Bayer Aktiengesellschaft, priority 2019, dated 2025)

Test system: Avena fatua
Assay: Pre-emergence herbicidal action, AVEFA
Assay type: in vivo
Details: comparative experiment, 20 g of a.i./ha
Excerpt: 1. Pre-Emergence Herbicidal Action Against Harmful Plants Seeds of monocotyledonous and dicotyledonous weed plants and crop plants are laid out in sandy loam soil in wood-fiber pots and covered with soil. The compounds of the invention, formulated in the form of wettable powders (WP) or as emulsion concentrates (EC), are then applied to the surface of the covering soil in the form of an aqueous suspension or emulsion at a water application rate equating to 600 to 800 l/ha, with addition of 0.2% wetting agent. After the treatment, the pots are placed in a greenhouse and kept under good growth conditions for the trial plants. The damage to the test plants is scored visually after a test period of 3 weeks by comparison with untreated controls (herbicidal activity in percent (%): 100% activity=the plants have died, 0% activity=like control plants). […] The tables below illustrate, in an exemplary manner, the post-emergence herbicidal action of the compounds according to the invention, the herbicidal activity being stated in percent. [table] In the experiments that follow, herbicidal action of numerous inventive compounds and the known compounds that are structurally closest from D1 (WO 2012/028579 A1) and D2 (WO 2018/202535 A1) were compared under the above-specified conditions by the pre-emergence and post-emergence method. […]

## CSCc1c(C(F)F)ccc(C(=O)Nc2nnnn2C)c1Cl [Example 1-320]
  Herbicidal action against AVEFA: 70
